Experimental data published in ChEMBL document CHEMBL1125702 (J Med Chem, 1991).

Tested on: Cynomolgus monkey
Assay: Compound was evaluated for pseudo Hill coefficients (nH) in cynomolgus monkeys
Format: ADME, organism-based, Macaca fascicularis
Conditions: in vivo

First: COC(=O)[C@H]1[C@@H](c2ccc(F)cc2)C[C@H]2CC[C@H]1N2C
Second: CCCN1C2CCC1C(C(=O)OC)[C@@H](c1ccc(F)cc1)C2 (stereo not given in full)
The Hill coefficient of the first is lower: 0.66 nH for the first, 0.7 nH for the second.

First: COC(=O)C1C2CCC(C[C@@H]1c1ccc(F)cc1)N2 (stereo not given in full)
Second: C=CCN1C2CCC1C(C(=O)OC)[C@@H](c1ccc(F)cc1)C2 (stereo not given in full)
The Hill coefficient of the first is lower: 0.64 nH for the first, 0.65 nH for the second.

`COC(=O)[C@H]1[C@@H](OC(=O)c2ccccc2)C[C@@H]2CC[C@H]1N2C` [COCAINE] was tested, and the Hill coefficient was 0.54 nH.
